The source of these data is ChEMBL document CHEMBL3763105, “Semisynthesis of new aphidicolin derivatives with high activity against Trypanosoma cruzi” (Bioorg Med Chem Lett, 2016).

Structures are written as SMILES.

A short description of data set [1]: Selectivity index, ratio of IC50 for mouse C3H cells to IC50 for Trypanosoma cruzi Tulahuen amastigotes infected in mouse C3H cells. Format: toxicity, cell-based. The following applies: read-out: Ratio IC50.
Data set [2] is described as follows: Cytotoxicity against mouse C3H cells after 72 hrs by MTS assay. It is filed as cell-based. (In general: Tetrazolium assays rely on reduction of a dye to a coloured formazan, in cell work by metabolically active cells.)
The subject of data set [3] is Trypanosoma cruzi. The data set is described as follows: Antitrypanosomal activity against Trypanosoma cruzi Tulahuen amastigotes infected in mouse C3H cells after 72 hrs by microplate reader analysis. Format: functional, organism-based.

For `O=C(Cn1ccnc1[N+](=O)[O-])NCc1ccccc1` [BENZNIDAZOLE], in data set [1], the selectivity ratio is more than 100. Further, the IC50 – broadly, the point on the concentration scale where inhibition reaches its midpoint – is more than 100 µM in data set [2] and 3 µM in data set [3].
The compound `CC(C)(C)[Si](C)(C)OC[C@]1(O)CC[C@@]23C[C@@H]1C[C@H]2CC[C@@H]1[C@@](C)(CO[Si](C)(C)C(C)(C)C)[C@@H](O)CC[C@]13C` registered an IC50 in data set [3] of more than 100 µM.
In the case of `C[C@]12COS(=O)O[C@H]1CC[C@]1(C)[C@@H]2CC[C@@H]2C[C@H]3C[C@]21CC[C@@]3(O)CO` (some centres not stated), in data set [1], the selectivity ratio is more than 100. The IC50 in data set [2] is more than 100 µM; in data set [3], 0.78 µM.
`COc1cccc2c1C(=O)c1c(O)c3c(c(O)c1C2=O)C[C@@](O)(C(=O)CO)C[C@@H]3O[C@H]1C[C@H](N)[C@H](O)[C@H](C)O1` [DOXORUBICIN] registered an IC50 in data set [2] of 0.04 µM.
Consider `C[C@]1(CO)/C(=N\O)CC[C@]2(C)[C@@H]1CC[C@@H]1C[C@H]3C[C@]12CC[C@@]3(O)CO`, for which, in data set [1], the selectivity ratio worked out at 37.9. The IC50 in data set [2] amounted to 64.5 µM; in data set [3] it was 1.7 µM.
In turn, `CC(C)(C)[Si](C)(C)OC[C@]1(O)CC[C@@]23C[C@@H]1C[C@H]2CC[C@@H]1[C@@](C)(CO[Si](C)(C)C(C)(C)C)C(=O)CC[C@]13C` had an IC50 in data set [3] of more than 100 µM.
